Measured values taken from patent US20250388604A1, “Compounds and Their Use as PDE4 Activators” (Mironid Limited, priority 2022, published 2025).

test system: m-IMCD3 cells; test: Inhibition of PGE2-stimulated in vitro cyst formation in m-IMCD3 cells; format: cell-based, mouse; conditions: Mus musculus, mIMCD3, 144 h, 10 μM; mean cyst area, 100% for (DMSO + PGE2) and 0% for DMSO control; 6 days of culture; read-out: % Cyst area after incubation with 10 μM test compound
Method: HEK 293 and MDCK cells (Public Health England, Cell Culture Collections) were maintained in Dulbecco's Modified Eagle's Medium (DMEM) supplemented with 10% (v/v) fetal bovine serum (FBS) (Seralab), 2 mM L-glutamine and 100 U/mL penicillin streptomycin cocktail (ThermoFisher); termed complete media. Clonal HEK 293 cell lines were maintained in complete media supplemented with 0.6 mg/ml G418 (Enzo Life Sciences). Mouse inner medullary collecting duct (m-IMCD3) cells [American Type Culture Collection (ATCC)] were maintained in media consisting of DMEM/Hams F-12 50/50 Mix (DMEM F12; Corning) supplemented with penicillin streptomycin cocktail (100 U/mL) and FBS (10% v/v) (DMEM F12-10% FBS).
The mouse Inner Medullary Collecting Duct cell line (m-IMCD3) spontaneously forms cystic spheroids in 3D culture with a Type 1 collagen/Matrigel extracellular matrix. This process can be stimulated with agents which raise intracellular cAMP and is used as an in vitro model for the formation of cystic structures in the kidneys of patients with ADPKD.
Rat Collagen I (Fisher Scientific) is prepared on ice by neutralising with 1M NaOH and diluting with a 2× volume of DMEM/F12+10% FBS. This is mixed 1:1.1 with ice cold Matrigel (Corning) for coating plates (coating mix), and 1:0.93 with Matrigel for cell plating (plating mix).
The assay is conducted in the wells of a 96-well plate culture dish using a total volume of 130 μL of collagen/Matrigel/DMEM F12-10% FBS suspension in growth media for each matrix plug per individual well. Initially, 30 μL of collagen/Matrigel/DMEM F12-10% FBS (coating mix) is added into the well of a 96 well plate and the collagen is set to a gel by incubating at 37° C. for at least 15 minutes. A second layer of 100 μL collagen/Matrigel suspension (plating mix) containing m-IMCD3 cells (2.75×10^6 m-IMCD3 cells per 96-well plate) is layered over the coating mix and the collagen/Matrigel/cell mix again set to a gel by incubating at 37° C. Cell cultures are maintained at 37° C. in an atmosphere of 5% CO2, 95% air.
Between 18 and 24 h after plating, test compound(s) as DMSO stock solutions [0.1% (v/v) final DMSO concentration] and PGE2 (100 nM final concentration) in DMEM F12-10% FBS are added in quadruplicate wells per condition. Media, together with the test compound and PGE2 are replenished after 2 or 3 days. After 6 days of culture z stack images of the wells are captured using the Nikon Eclipse Ti2-E microscope. Nikon General Analysis software is used to measure the following parameters in each well: the mean cyst area, the number of cysts, and the total cyst area.
PDE4 long form activators inhibited in vitro cyst formation in m-IMCD3 cells. Data are shown in Table 4 as mean cyst area (%), compared to 100% for (DMSO+PGE2) and 0% for DMSO control.

Row | Structure (SMILES) | activity at 10 µM
1 | CC1(C)CCCC1C(=O)N1CCc2nc(N3C4CCC3CNC4)sc2C1 (stereo not drawn) [Example 37, (2-(3,8-diazabicyclo[3.2.1]octan-8-yl)-6,7-dihydrothiazolo[5,4-c]pyridin-5(4H)-yl)(2,2-dimethylcyclopentyl)methanone] | -2%
2 | CC1(C)CCC(C(=O)N2CCc3nc(N4C5CCC4CNC5)sc3C2)C1 (stereo not drawn) [Example 38, (2-(3,8-diazabicyclo[3.2.1]octan-8-yl)-6,7-dihydrothiazolo[5,4-c]pyridin-5(4H)-yl)(3,3-dimethylcyclopentyl)methanone] | 8%
3 | CC(C)NC(=O)N1CCc2nc(N3C4CCC3CNC4)sc2C1 [Example 51, 2-(3,8-diazabicyclo[3.2.1]octan-8-yl)-N-isopropyl-6,7-dihydrothiazolo[5,4-c]pyridine-5(4H)-carboxamide] | 9%
4 | O=C(NC1CCCCC1)N1CCc2nc(N3C4CCC3CNC4)sc2C1 [Example 52] | -6%
5 | O=C(NCc1ccc(F)cc1)N1CCc2nc(N3C4CCC3CNC4)sc2C1 [Example 55, 2-(3,8-diazabicyclo[3.2.1]octan-8-yl)-N-(4-fluorobenzyl)-6,7-dihydrothiazolo[5,4-c]pyridine-5(4H)-carboxamide] | 0%
6 | O=C(NCc1ccc(C(F)(F)F)cc1)N1CCc2nc(N3C4CCC3CNC4)sc2C1 [Example 56, 2-(3,8-diazabicyclo[3.2.1]octan-8-yl)-N-(4-(trifluoromethyl)benzyl)-6,7-dihydrothiazolo[5,4-c]pyridine-5(4H)-carboxamide] | -6%
7 | O=C(Nc1ccccc1)N1CCc2nc(N3C4CCC3CNC4)sc2C1 [Example 57, 2-(3,8-diazabicyclo[3.2.1]octan-8-yl)-N-phenyl-6,7-dihydrothiazolo[5,4-c]pyridine-5(4H)-carboxamide] | -3%
8 | O=C(NC1CCC(F)(F)CC1)N1CCc2nc(N3C4CCC3CNC4)sc2C1 [Example 58, 2-(3,8-diazabicyclo[3.2.1]octan-8-yl)-N-(4,4-difluorocyclohexyl)-6,7-dihydrothiazolo[5,4-c]pyridine-5(4H)-carboxamide] | -3%
9 | O=C(N1CCCC1)N1CCc2nc(N3C4CCC3CNC4)sc2C1 [Example 60, (2-(3,8-diazabicyclo[3.2.1]octan-8-yl)-6,7-dihydrothiazolo[5,4-c]pyridin-5(4H)-yl)(pyrrolidin-1-yl)methanone] | 2%
10 | CN(C(=O)N1CCc2nc(N3C4CCC3CNC4)sc2C1)C1CCCC1 [Example 62, 2-(3,8-diazabicyclo[3.2.1]octan-8-yl)-N-cyclopentyl-N-methyl-6,7-dihydrothiazolo[5,4-c]pyridine-5(4H)-carboxamide] | 1%
11 | CC(C)(C)C(=O)N1CCc2nc(N3C4CCC3CNC4)sc2C1 [Example 65, 1-(2-(3,8-diazabicyclo[3.2.1]octan-8-yl)-6,7-dihydrothiazolo[5,4-c]pyridin-5(4H)-yl)-2,2-dimethylpropan-1-one] | -2%
12 | O=C(CC1CCC(F)(F)CC1)N1Cc2nc(N3C4CCC3CNC4)sc2C1 [Example 67, 1-(2-(3,8-diazabicyclo[3.2.1]octan-8-yl)-4,6-dihydro-5H-pyrrolo[3,4-d]thiazol-5-yl)-2-(4,4-difluorocyclohexyl)ethan-1-one] | -4%
13 | O=C(NC1CCC(F)(F)CC1)N1CCn2nc(N3C4CCC3CNC4)cc2C1 [Example 70, 2-(3,8-diazabicyclo[3.2.1]octan-8-yl)-N-(4,4-difluorocyclohexyl)-6,7-dihydropyrazolo[1,5-a]pyrazine-5(4H)-carboxamide] | 7%
14 | O=C(CC1CCC(F)(F)CC1)N1CCn2nc(N3C4CCC3CNC4)cc2C1 [Example 71, 1-(2-(3,8-diazabicyclo[3.2.1]octan-8-yl)-6,7-dihydropyrazolo[1,5-a]pyrazin-5(4H)-yl)-2-(4,4-difluorocyclohexyl)ethan-1-one] | -3%
15 | O=C(COc1ccc(F)cc1)N1CCn2nc(N3C4CCC3CNC4)cc2C1 [Example 72, 1-(2-(3,8-diazabicyclo[3.2.1]octan-8-yl)-6,7-dihydropyrazolo[1,5-a]pyrazin-5(4H)-yl)-2-(4-fluorophenoxy)ethan-1-one] | -3%
16 | O=C(COc1ccnc(F)c1)N1CCc2nc(N3C4CCC3CNC4)sc2C1 [Example 73, 1-(2-(3,8-diazabicyclo[3.2.1]octan-8-yl)-6,7-dihydrothiazolo[5,4-c]pyridin-5(4H)-yl)-2-((2-fluoropyridin-4-yl)oxy)ethan-1-one] | 3%
17 | CN1CC2CCC(C1)N2c1nc2c(s1)CN(C(=O)CC1CCCC1)CC2 [Example 75, 2-cyclopentyl-1-(2-(3-methyl-3,8-diazabicyclo[3.2.1]octan-8-yl)-6,7-dihydrothiazolo[5,4-c]pyridin-5(4H)-yl)ethan-1-one] | -4%
18 | CN1CC2CCC(C1)N2c1nc2c(s1)CN(C(=O)NC1CCC(F)(F)CC1)CC2 [Example 77, N-(4,4-difluorocyclohexyl)-2-(3-methyl-3,8-diazabicyclo[3.2.1]octan-8-yl)-6,7-dihydrothiazolo[5,4-c]pyridine-5(4H)-carboxamide] | 1%
19 | CN1CC2CCC(C1)N2c1nc2c(s1)CN(C(=O)COc1ccnc(F)c1)CC2 [Example 79, 2-((2-fluoropyridin-4-yl)oxy)-1-(2-(3-methyl-3,8-diazabicyclo[3.2.1]octan-8-yl)-6,7-dihydrothiazolo[5,4-c]pyridin-5(4H)-yl)ethan-1-one] | -2%
20 | CN1CC2CCC(C1)N2c1nc2c(s1)CN(C(=O)NC1CCCC1)C2 [Example 82, N-cyclopentyl-2-(3-methyl-3,8-diazabicyclo[3.2.1]octan-8-yl)-4,6-dihydro-5H-pyrrolo[3,4-d]thiazole-5-carboxamide] | 2%
21 | CN1CC2CCC(C1)N2c1nc2c(s1)CN(C(=O)CC1CCCC1)C2 [Example 83, 2-cyclopentyl-1-(2-(3-methyl-3,8-diazabicyclo[3.2.1]octan-8-yl)-4,6-dihydro-5H-pyrrolo[3,4-d]thiazol-5-yl)ethan-1-one] | 4%
22 | CN1CC2CCC(C1)N2c1nc2c(s1)CN(C(=O)CC1CCC(F)(F)CC1)C2 [Example 84, 2-(4,4-difluorocyclohexyl)-1-(2-(3-methyl-3,8-diazabicyclo[3.2.1]octan-8-yl)-4,6-dihydro-5H-pyrrolo[3,4-d]thiazol-5-yl)ethan-1-one] | 1%
23 | CN1CC2CCC(C1)N2c1cc2n(n1)CCN(C(=O)NC1CCC(F)(F)CC1)C2 [Example 85, N-(4,4-difluorocyclohexyl)-2-(3-methyl-3,8-diazabicyclo[3.2.1]octan-8-yl)-6,7-dihydropyrazolo[1,5-a]pyrazine-5(4H)-carboxamide] | -2%
24 | CN1CC2CCC(C1)N2c1cc2n(n1)CCN(C(=O)CC1CCC(F)(F)CC1)C2 [Example 86, 2-(4,4-difluorocyclohexyl)-1-(2-(3-methyl-3,8-diazabicyclo[3.2.1]octan-8-yl)-6,7-dihydropyrazolo[1,5-a]pyrazin-5(4H)-yl)ethan-1-one] | -1%
25 | O=C(CC1CCC(F)(F)CC1)N1CCn2nc(N3C4CCC3CNC4)nc2C1 [Example 97, 1-(2-(3,8-diazabicyclo[3.2.1]octan-8-yl)-5,6-dihydro-[1,2,4]triazolo[1,5-a]pyrazin-7 (8H)-yl)-2-(4,4-difluorocyclohexyl)ethan-1-one] | 6%
26 | CC1(C)CN(C(=O)CC2CCC(F)(F)CC2)Cc2sc(N3C4CCC3CNC4)nc21 [Example 98, 1-(2-(3,8-diazabicyclo[3.2.1]octan-8-yl)-7,7-dimethyl-6,7-dihydrothiazolo[5,4-c]pyridin-5(4H)-yl)-2-(4,4-difluorocyclohexyl)ethan-1-one] | 3%
27 | CC1(C)CN(C(=O)CC2CCC(F)(F)CC2)Cc2sc(N3CCNCC3)nc21 [Example 100, 2-(4,4-difluorocyclohexyl)-1-(7,7-dimethyl-2-(piperazin-1-yl)-6,7-dihydrothiazolo[5,4-c]pyridin-5(4H)-yl)ethan-1-one] | -1%
